{"source": "patent US20260347372A1", "about": "“SMALL MOLECULE INHIBITORS OF KRAS G12D MUTANT” (MERCK SHARP & DOHME LLC, priority 2023, published 2026)", "key": {"KRAS G12C [1]": {"target": "T1, KRAS G12C (Homo sapiens, UniProt P01116, G12C)", "T1 construct": "KRAS G12C (amino acids 1-169, N-terminal His-tag); made in house; host or cells: E. coli", "T1 sequence (P01116 with tags, fused parts or gaps isoform P01116-2 G12C)": "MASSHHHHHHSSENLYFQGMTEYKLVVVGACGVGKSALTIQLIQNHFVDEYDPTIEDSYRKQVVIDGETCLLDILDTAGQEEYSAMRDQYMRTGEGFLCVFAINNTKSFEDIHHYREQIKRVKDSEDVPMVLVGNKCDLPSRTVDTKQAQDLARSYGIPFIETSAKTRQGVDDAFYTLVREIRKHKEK", "assay": "SOS-catalyzed nucleotide exchange assay, KRAS G12C (Procedure B; Example 14)", "type": "biochemical", "settings": "1 hour compound incubation, SOS1 and GMPPNP 30 minutes, read-out: KRAS G12C GNE IC50", "method": "(§1) Procedure for SOS-Catalyzed Nucleotide Exchange Assay for KRAS-G12C/D/V/WT (Procedure B)\n(§2) Recombinant KRAS G12C (amino acids 1-169, SEQ ID NO:9), KRAS G12D (amino acids 1-169, SEQ ID NO:10), KRAS G12V (amino acids 1-169, SEQ ID NO:11), KRAS WT (amino acids 1-169, SEQ ID NO:12) and SOS1 (amino acids 564-1049, SEQ ID NO:13) proteins were expressed in E. coli and purified by affinity chromatography. To prepare each BODIPY™ FL GDP-bound KRAS protein, 50 μM KRAS proteins were incubated with 0.5 mM BODIPY™ FL GDP (Invitrogen, G22360) in a loading buffer (20 mM Tris-HCl pH 7.5, 50 mM NaCl, 1 mM DTT and 2.5 mM EDTA) for 1 hour on ice. After the incubation, MgCl2 was added to a final concentration of 10 mM, followed by an incubation at room temperature for 30 minutes. The mixtures were allowed to pass through a NAP-5 column to remove free nucleotides and purified BODIPY™ FL GDP-bound KRAS G12C, G12D, G12V and WT proteins were used for compound evaluation.\n(§3) The inhibitory activity of compounds on recombinant KRAS is measured by the displacement of the bound BODIPY™ GDP. […] Displacement of BODIPY™ FL GDP by Guanosine-5′-[(β,γ)-imido]triphosphate, Tetralithium salt (GMPPNP) was measured by calculating the ratio of fluorescence intensities of BODIPY™ FL before and after the exchange reaction. […] Dose response curves were analyzed using a 4-parameter logistic model to calculate IC50 values. […]"}, "KRAS WT [2]": {"target": "T2, KRAS WT (Homo sapiens, UniProt P01116)", "assay": "SOS-catalyzed nucleotide exchange assay, KRAS WT (Procedure B; Example 14)", "type": "biochemical", "set-up": "KRAS WT (amino acids 1-169, N-terminal His-tag); made in house; host or cells: E. coli", "settings": "1 hour compound incubation, SOS1 and GMPPNP 30 minutes, read-out: KRAS WT GNE IC50", "method": "as §1, §2, §3"}, "KRAS G12D [3]": {"target": "T3, KRAS G12D (Homo sapiens, UniProt P01116, G12D)", "assay": "SOS-catalyzed nucleotide exchange assay, KRAS G12D (Procedure B; Example 14)", "type": "biochemical", "set-up": "KRAS G12D (amino acids 1-169, N-terminal His-tag); made in house; host or cells: E. coli", "settings": "1 hour compound incubation, SOS1 and GMPPNP 30 minutes, read-out: KRAS G12D GNE IC50", "method": "as §1, §2, §3"}, "KRAS G12V [4]": {"target": "T4, KRAS G12V (Homo sapiens, UniProt P01116, G12V)", "assay": "SOS-catalyzed nucleotide exchange assay, KRAS G12V (Procedure B; Example 14)", "type": "biochemical", "set-up": "KRAS G12V (amino acids 1-169, N-terminal His-tag); made in house; host or cells: E. coli", "settings": "1 hour compound incubation, SOS1 and GMPPNP 30 minutes, read-out: KRAS G12V GNE IC50", "method": "as §1, §2, §3"}, "KRAS G12D [5]": {"target": "T3, KRAS G12D", "assay": "SOS-catalyzed nucleotide exchange assay, KRAS G12D (Procedure A)", "type": "biochemical", "settings": "guanine nucleotide exchange (GNE)", "how_it_was_run": "(§4)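 Compounds in 10-point 3-fold series sat 60 min with biotin-KRAS/Bodipy-GDP/Tb-streptavidin complex, then human SOS and 3 mM GTP were added. G13D: 1.25 nM KRAS, no SOS, 30 min. WT and G12D: 1 nM with 40 nM SOS, 60 min. G12C (C51S/C80L/C118S): 3 nM/40 nM, 60 min. Curves fitted from normalised TR-FRET 520/495 ratio.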"}, "KRAS WT [6]": {"target": "T2, KRAS WT", "assay": "SOS-catalyzed nucleotide exchange assay, KRAS WT (Procedure A)", "type": "biochemical", "settings": "GNE", "how_it_was_run": "as §4"}, "KRAS G12C [7]": {"target": "KRAS G12C (Homo sapiens, UniProt P01116, C118S/C51S/C80L/G12C)", "sequence (P01116 with tags, fused parts or gaps isoform P01116-2 G12C/C51S/C80L/C118S)": "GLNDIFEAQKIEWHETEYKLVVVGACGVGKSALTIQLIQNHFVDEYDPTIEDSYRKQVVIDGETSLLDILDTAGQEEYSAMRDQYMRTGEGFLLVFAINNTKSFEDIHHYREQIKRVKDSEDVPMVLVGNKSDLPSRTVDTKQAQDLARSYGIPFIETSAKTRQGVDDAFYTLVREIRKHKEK", "assay": "SOS-catalyzed nucleotide exchange assay, KRAS G12C (Procedure A)", "type": "biochemical", "settings": "GNE", "how_it_was_run": "as §4"}, "KRAS G12V [8]": {"target": "T4, KRAS G12V", "assay": "SOS-catalyzed nucleotide exchange assay, KRAS G12V (Procedure A)", "type": "biochemical", "settings": "GNE", "how_it_was_run": "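Biotinylated KRAS G12V was loaded with Bodipy-GDP alongside Terbium-streptavidin to form a TR-FRET complex, which was preincubated with compounds for 60 minutes in 384-well plates. Human SOS protein and unlabeled GTP were then added for 90 minutes, giving final concentrations of 1.25 nM KRAS-G12V, 160 nM SOS and 3 mM GTP. The 520/495 nm emission ratio was read on an Envision.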"}, "KRAS G13D": {"target": "KRAS G13D (Homo sapiens, UniProt P01116, G13D)", "sequence (P01116 with tags, fused parts or gaps isoform P01116-2 G13D)": "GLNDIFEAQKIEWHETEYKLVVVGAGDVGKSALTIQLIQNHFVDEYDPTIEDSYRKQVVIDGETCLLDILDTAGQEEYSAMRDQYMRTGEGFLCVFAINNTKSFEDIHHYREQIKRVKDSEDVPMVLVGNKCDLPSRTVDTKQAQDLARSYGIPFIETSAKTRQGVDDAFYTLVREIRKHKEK", "assay": "SOS-catalyzed nucleotide exchange assay, KRAS G13D (Procedure A)", "type": "biochemical", "settings": "GNE", "how_it_was_run": "as §4"}, "HRAS": {"target": "HRAS (Homo sapiens, UniProt P01112)", "sequence (P01112 with tags, fused parts or gaps)": "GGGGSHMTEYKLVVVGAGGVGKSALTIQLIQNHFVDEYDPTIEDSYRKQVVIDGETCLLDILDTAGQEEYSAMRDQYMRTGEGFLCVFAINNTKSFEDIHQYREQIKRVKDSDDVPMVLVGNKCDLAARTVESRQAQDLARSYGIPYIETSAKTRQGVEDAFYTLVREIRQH", "assay": "SOS-catalyzed nucleotide exchange assay, HRAS (Procedure A)", "type": "biochemical", "settings": "GNE", "how_it_was_run": "(§5)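 60 min cpd preinc. w/ RAS–Bodipy-GDP–Tb-SA complex; + hSOS/GTP (3 mM final), RT. G12C 3 nM RAS/40 nM SOS; WT, G12D 1 nM/40 nM; 60 min rxn. G13D 1.25 nM, no SOS, 30 min rxn. HEPES pH 7.5, 10 mM MgCl2. Ratio 520/495, norm. to DMSO/max-inhibitor ctrls.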"}, "NRAS": {"target": "NRAS (Homo sapiens, UniProt P01111)", "sequence (P01111 with tags, fused parts or gaps)": "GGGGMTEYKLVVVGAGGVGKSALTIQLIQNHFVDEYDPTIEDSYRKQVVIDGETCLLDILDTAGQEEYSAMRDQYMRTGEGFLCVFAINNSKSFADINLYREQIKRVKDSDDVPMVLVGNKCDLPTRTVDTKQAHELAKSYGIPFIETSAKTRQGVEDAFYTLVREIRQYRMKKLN", "assay": "SOS-catalyzed nucleotide exchange assay, NRAS (Procedure A)", "type": "biochemical", "settings": "GNE", "how_it_was_run": "as §5"}, "PANC08.13 cells": {"target": "T5, PANC08.13 cells (Homo sapiens, UniProt P01116, G12D)", "T5 construct": "p-ERK/total ERK AlphaSureFire read-out", "T5 sequence (P01116 1-188 isoform P01116-2 G12D)": "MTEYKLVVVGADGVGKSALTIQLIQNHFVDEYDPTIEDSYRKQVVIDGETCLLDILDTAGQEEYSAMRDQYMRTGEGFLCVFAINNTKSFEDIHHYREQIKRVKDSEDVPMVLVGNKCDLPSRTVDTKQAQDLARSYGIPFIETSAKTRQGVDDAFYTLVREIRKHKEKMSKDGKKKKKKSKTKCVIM", "assay": "Cellular phospho-ERK assay, PANC08.13 cells (KRAS G12D)", "type": "cell-based", "settings": "2 hours, read-out: PANCO 813 pERK IC50", "how_it_was_run": "(§6)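 Compound was titrated 10-point in 3-fold steps (top 30 μM) on KRAS G12D homozygous pancreatic lines PANC08.13 and AsPC-1 for 2 h at 37 °C. The p-ERK/total ERK ratio was measured by multiplex AlphaLISA SureFire and fitted with a 4-parameter logistic model to give IC50.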"}, "AsPC-1 cells": {"target": "T6, AsPC-1 cells (Homo sapiens, UniProt P01116, G12D)", "T6 construct": "p-ERK/total ERK AlphaSureFire read-out", "T6 sequence (P01116 1-188 isoform P01116-2 G12D)": "as above", "assay": "Cellular phospho-ERK assay, AsPC-1 cells (KRAS G12D)", "type": "cell-based", "settings": "2 hours, read-out: AsPC1 pERK IC50", "how_it_was_run": "as §6"}}, "data": [{"smiles": "FC(F)c1ccc2[nH]ncc2c1-c1nccc2c1sc1nc(OC[C@@]34CCCN3C[C@H](F)C4)nc(N3C[C@H]4CC[C@@H](C3)N4)c12", "note": "[Ex-14, 4-((1R,5S)-3,8-diazabicyclo[3.2.1]octan-3-yl)-8-(5-(difluoromethyl)-1H-indazol-4-yl)-2-(((2R,7aS)-2-fluorotetrahydro-1H-pyrrolizin-7a(5H)-yl)methoxy)pyrido[4′,3′:4,5]thieno [2,3-d]pyrimidine]", "values": [{"measurement": "IC50", "setting": "KRAS G12C [1]", "value": "> 5000", "unit": "nM"}, {"measurement": "IC50", "setting": "KRAS WT [2]", "value": "> 5000", "unit": "nM"}, {"measurement": "IC50", "setting": "KRAS G12D [3]", "value": 110, "unit": "nM"}, {"measurement": "IC50", "setting": "KRAS G12V [4]", "value": "> 5000", "unit": "nM"}]}, {"smiles": "C#Cc1c(F)ccc2cc(O)cc(-c3nccc4c5c(N6C[C@H]7CC[C@@H](C6)N7)nc(OC[C@@]67CCCN6C[C@H](F)C7)nc5n(C)c34)c12", "note": "[Ex-8, 4-(4-((1R,5S)-3,8-diazabicyclo[3.2.1]octan-3-yl)-2-(((2R,7aS)-2-fluorotetrahydro-1H-pyrrolizin-7a(5H)-yl)methoxy)-9-methyl-9H-pyrido[4′,3′:4,5]pyrrolo[2,3-d]pyrimidin-8-yl)-5-ethynyl-6-fluoronaphthalen-2-ol]", "values": [{"measurement": "IC50", "setting": "KRAS G12D [5]", "value": 1.81, "unit": "nM"}, {"measurement": "IC50", "setting": "KRAS WT [6]", "value": 48.1, "unit": "nM"}, {"measurement": "IC50", "setting": "KRAS G12C [7]", "value": 25.2, "unit": "nM"}, {"measurement": "IC50", "setting": "KRAS G12V [8]", "value": 62.6, "unit": "nM"}, {"measurement": "IC50", "setting": "KRAS G13D", "value": 17.8, "unit": "nM"}, {"measurement": "IC50", "setting": "HRAS", "value": "> 11100", "unit": "nM"}, {"measurement": "IC50", "setting": "NRAS", "value": "> 11100", "unit": "nM"}, {"measurement": "IC50", "setting": "PANC08.13 cells", "value": 63.8, "unit": "nM"}, {"measurement": "IC50", "setting": "AsPC-1 cells", "value": 138, "unit": "nM"}]}]}
